Data as given in patent US20200246308A1, “SYNERGISTIC COMBINATIONS OF UROLITHINS A AND B FOR IMPROVING COGNITIVE CAPACITY OR COGNITIVE FUNCTION” (Natreon, Inc., priority 2018, published 2020).

What was measured:
Human recombinant AChE = molecular target: T1, Human recombinant AChE (Homo sapiens, UniProt P22303); test: In-vitro human recombinant AChE inhibition assay, Amplex Red kit method; type: biochemical; conditions: Table 11
T1 construct: purchased Sigma Aldrich

[1] = molecular target: T2, Rat Acetylcholinesterase-induced β-Amyloid (Aβ1-40) Aggregation (Rattus norvegicus, UniProt P37136); test: Inhibition of AChE-induced β-amyloid peptide aggregation, ThT method; type: biochemical; conditions: test compounds 50 μM, B:A in μM, ThT fluorescence, 48 h
T2 sequence (P37136 32-614): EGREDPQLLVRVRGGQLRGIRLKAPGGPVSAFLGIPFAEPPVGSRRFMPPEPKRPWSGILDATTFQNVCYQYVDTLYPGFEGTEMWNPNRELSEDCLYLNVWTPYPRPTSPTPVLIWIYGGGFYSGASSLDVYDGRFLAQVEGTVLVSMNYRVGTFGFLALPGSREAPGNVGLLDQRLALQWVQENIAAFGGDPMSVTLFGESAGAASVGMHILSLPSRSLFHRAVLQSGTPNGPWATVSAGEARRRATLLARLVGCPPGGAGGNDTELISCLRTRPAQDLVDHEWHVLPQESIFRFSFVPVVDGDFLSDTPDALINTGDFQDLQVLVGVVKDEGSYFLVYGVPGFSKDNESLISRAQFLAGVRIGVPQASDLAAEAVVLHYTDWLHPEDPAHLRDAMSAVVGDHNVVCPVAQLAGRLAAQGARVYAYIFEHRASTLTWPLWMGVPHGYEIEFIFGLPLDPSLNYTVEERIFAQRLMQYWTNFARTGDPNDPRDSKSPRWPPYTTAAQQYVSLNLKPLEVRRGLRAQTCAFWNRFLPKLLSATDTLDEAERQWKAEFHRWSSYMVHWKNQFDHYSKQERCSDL
Protocol: Chemical reagents and starting materials were employed as above.
The effect of 3-OH-DBP (Urolithin B: B) and 3,8-(OH)2-DBP (Urolithin A: A) on the aggregation propensity of Aβ1-40 and (Thiofavin-T) ThT assay measurements were performed. […] Therefore, ThT assay was performed to study the effect of 3-(OH)-DBP (B) and 3,8-(OH)2-DBP (A) on the fibrillization of Aβ1-40.
The Aβ1-40 (10 μM and 30 μM) was incubated alone and independently with different concentrations of test compounds in the ratios shown in Tables 6 and 7, respectively.
2 μL of different concentrations of Aβ40 (10 and 30 μM) was incubated with 16 μL of AChE in the presence of different ratio of test compounds to obtain final concentrations of 30 or 10 μM Aβ40, […], 10, 20, 50 μM test compounds and 2 μL assay buffer ([…]). The mixture was incubated at room temperature for 24 or 48 hr in dark (Time period may be changed according to experiment).
Fluorescence intensities were obtained for Aβ40 aggregation in the presence of inhibitors, in the absence of inhibitors and the blanks or solvent control. After incubation, 178 μL of 20 μM ThT was added.
The percentage inhibition of the AChE-induced Aβ1-40 aggregation was calculated as follows.
Preparation of Aβ40Stock: Aβ40 peptide (0.25 mg) (Calbiochem, Merck) was dissolved in hexafluoro-2-propanol (HFIP, 0.2 mL) and incubated at room temperature for 1 h. HFIP was then removed by the flow of nitrogen and further dried under vacuum. The concentration of Aβ40 peptide was determined by UV-vis spectrometry (Biotek USA; Plate reader) using a molar extinction coefficient of 1450 cm^−1 M^−1 at 276 nm. HFIP-treated A1340 was then dissolved in 10 mM PBS buffer to a concentration of […] at pH 7.4. The assay was performed in triplicate and in three independent runs.

[2] = tested on: acetylcholine (ACh) level in HIP tissue; test: Acetylcholine level in hippocampal tissue, Amplex Red kit (Example 9D); type: in vivo, Male Wistar rats; conditions: p.o. 7 days: B 50, A 50, Donepezil 3, B:A 10:50 and 50:50, Shilajit 50 mg/kg
Protocol: Drug solution was freshly prepared in 0.3% CMC and administered by oral gavage once a day, for a period of 7 days. Briefly, the whole experiment was conducted for 8 days. Scopolamine (1 mg/kg), a muscarinic receptor antagonist, was dissolved in normal saline (0.9% NaCl) and administered intraperitoneally 1 h after drugs administration on seventh day.
Sample preparation: The animals were killed by decapitation and the brain tissues were dissected out in ice-cold conditions and stored at −80° C. until use. Tissue was homogenized in 1.0 ml of 0.1M perchloric acid with a Potter-Elvehjem homogenizer. The homogenate was kept in the polypropylene tubes for 15 min after which 40 μl of 4M potassium acetate was added to adjust the pH to 4.0 followed by centrifugation for 15 min at 4000×g. Supernatant was used to estimate acetylcholine and AChE activities.
Samples were prepared as in Example 9C. The amount of acetylcholine in brain tissues was measured using Amplex red assay kit (Molecular Probes, Inc., USA). An acetylcholine standard curve was used in each experiment. Briefly, the reactions are initiated by adding 0.1 ml of control (10 μM H2O2) and tissue homogenates were taken in two separate polypropylene tubes and then 0.1 ml working solution of 400 μM Amplex Red reagent containing 2 U/mL HRP, 0.2 U/mL choline oxidase and 1 U/mL acetylcholinesterase were added to each tube. After incubation for 45 min, the fluorescence was recorded with the help of spectrofluorometer at 530 nm excitation and 590 nm emission wavelengths. The protein content was determined using standard protocol (Lowry, et al., 1951).
Statistical analyses: The results were expressed as means±Standard Error mean (SEM). The intergroup variation was measured by one-way ANOVA followed by Student-Newman-Keuls test. Two-way followed by Bonferroni test was employed to discover the intergroup variation in Y maze test considering groups and arms as two independent variables. Statistical analysis was done by using Graph Pad prism version 5 (San Diego, Calif.). A level of p<0.05 was accepted as statistically significant.

T1 sequence (P22303 32-614): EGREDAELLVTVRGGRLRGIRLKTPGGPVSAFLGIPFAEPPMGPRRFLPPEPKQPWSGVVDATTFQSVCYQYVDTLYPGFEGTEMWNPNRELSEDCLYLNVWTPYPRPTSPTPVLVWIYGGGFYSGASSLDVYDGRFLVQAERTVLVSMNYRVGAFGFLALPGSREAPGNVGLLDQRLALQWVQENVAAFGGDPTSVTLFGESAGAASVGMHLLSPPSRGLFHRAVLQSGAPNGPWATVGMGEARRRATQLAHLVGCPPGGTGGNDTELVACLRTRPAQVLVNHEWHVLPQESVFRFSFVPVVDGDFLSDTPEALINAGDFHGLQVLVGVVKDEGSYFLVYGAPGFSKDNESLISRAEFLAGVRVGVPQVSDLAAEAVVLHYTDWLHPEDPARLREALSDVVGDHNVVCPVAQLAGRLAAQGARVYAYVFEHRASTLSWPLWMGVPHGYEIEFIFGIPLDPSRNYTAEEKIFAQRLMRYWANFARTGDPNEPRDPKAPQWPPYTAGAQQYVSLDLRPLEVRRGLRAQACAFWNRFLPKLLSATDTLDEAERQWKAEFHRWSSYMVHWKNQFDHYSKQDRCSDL

SMILES | IC50 (Human recombinant AChE) | inhibition of Aβ40 aggregation ([1]; Aβ40 30 μM) | inhibition of Aβ40 aggregation ([1]; amyloid beta 10 μM) | Scopolamine-induced decrease in ACh level in HIP tissue [2]
O=c1oc2cc(O)ccc2c2ccc(O)cc12 [Urolithin A, 3,8-dihydroxy-dibenzo-alpha-pyrone] | 528.00 ± 70.71 µg/mL | ~32% | ~35% | attenuated the scopolamine induced decrease in ACh level
O=c1oc2cc(O)ccc2c2ccccc12 [Urolithin B, 3-hydroxy-dibenzo-alpha-pyrone] | 412.00 ± 28.28 µg/mL | ~41% | ~50% | attenuated the scopolamine induced decrease in ACh level
